Results reported in patent US7695923B2, “CFTR polypeptides methods to overcome biosynthetic misprocessing” (Mayo Foundation for Medical Education and Research, priority 1999, dated 2010).
“Also recorded” adds a separate entry of the source.

How the values were obtained:
BHK cells [1] = test: 35S-methionine pulse chase of CFTR maturation; format: cell-based, Baby hamster; conditions: for maturation at the end of the pulse: end of the pulse (0 min); for conversion of precursor to mature endoH resistant form during chase: pulse chase; for radioactivity of pulse-labeled immature band present in mature band (conversion of precursor to product): after 4 h of chase, electronic autoradiography
Procedure: Pulse chase studies were performed to determine the rate at which maturation occurred in the arginine-framed triplet substituted wild-type and ΔF508 CFTR polypeptides (FIG. 2). […] Cells were lysed at the end of the labeling period (0 chase time) or were further incubated in complete medium containing 5% fetal bovine serum and 1 mM methionine for the indicated times (chase). Cells were collected and lysed with the NP40 lysis buffer described above and centrifuged at 15,000×g for 15 min at 4° C. to obtain a soluble supernatant which was incubated overnight with the M3A7 primary antibody. Protein G-agarose (Gibco-BRL) was then used to remove the complexes formed which were washed four times with RIPA buffer, dissolved in electrophoresis sample buffer, and subsequently fractionated on SDS-7% acrylamide gels. Following fractionation, the gels were fixed in 30% methanol and 10% acetic acid, equilibrated in 1M sodium salicylate and dried for fluorography. Electronic autoradiography was performed with a Packard Instant Imager. […]

CFTR chloride channels [2] = test: Single CFTR Cl- channel recording in planar lipid bilayers; format: biochemical, human; conditions: for Conductance: 300 mM Tris-HCl; for Conductance / Long mean closed time τc2 / Mean open time τ0 / Short mean closed time τc1: -75 mV, 2 mM MgATP; for open probability: 25° C.
Procedure: (§1) To further characterize the Cl^− channel activity, membrane vesicles were isolated from cells expressing wild-type, wild-type/4RK and ΔF508/4RK CFTR, fused with planar lipid bilayers and single channels were recorded (Aleksandrov, A. A., and Riordan, J. R. (1998) FEBS Lett. 431:97-101). Vesicles were prepared and phosphorylated with PKA as described previously (Aleksandrov and Riordan, 1998, supra). Briefly, planar lipid bilayers were painted onto a 0.2 mm hole drilled in a Teflon cup using a phospholipid solution in n-decane containing a 2:1 mixture of 1-palmitoyl-2-oleoyl-sn-glycero-3-phosphoethanolamine and 1-palmitoyl-2-oleoyl-sn-glycero-3-phosphoserine (20 mg/ml). The lipid bilayer separated 1.0 ml of solution in the Teflon cup (cis-side) from 4.0 ml of solution in an outer glass chamber (trans-side). Both chambers were magnetically stirred and thermostated. Heating and temperature control were established using a Temperature Control System TC2BIP (Cell MicroControls). Electrical contact with the solutions was provided by Ag/AgCl electrodes through agar bridges filled with 0.5 M KCl. The membrane potential difference was measured as the difference between trans and cis side potentials. The trans side was grounded and electrical measurements of the single channel current were performed under voltage clamp conditions using an Axopatch 200B (Axon Instruments) amplifier. The output signal was filtered with an 8-pole low pass Bessel Filter LPBF-48DG (NPI Electronic GmbH) with cut off frequency of 50 Hz and recorded on magnetic tape using a VR-10B (Instrutech Corp.) digital data recorded on a Sony SLV-440 VCR. For data analysis, the signal was digitized (Digidata 1200; Axon Instruments) with a sampling rate of 500 Hz and analyzed using pCLAMP 6.0 (Axon Instruments) software. Origin 4.0 (Microcal) software was used to fit all points histograms by multi-peak Gaussians. Membrane vesicles were prephosphorylated with PKA and added as a concentrated stock solution to the cis side to obtain a final protein concentration of 10-15 μg/ml. Measurements were made in symmetrical salts solutions containing, in mM: 300 Tris-HCl, 2 MgCl, 1 EGTA, pH=7.2, at a membrane potential of −75 mV. MgATP (2 mM) was added to the cis side only. Under these conditions any cationic channels present in the membrane vesicles are invisible and CFTR chloride channels appeared only after fusion of vesicles with an inside out orientation. Conductances for wild-type, wild-type/4RK and ΔF508/4RK were 10.7, 10.8, and 10.7 pS, respectively. Mean open times τ0 were 230, 1400, and 700 msec respectively. Short mean closed times τc1 were 10 msec in each case. Long mean closed times τc2 were 680, 2000, and 2800 msec, respectively. Conductance as a function of Cl^− concentration and temperature as well as anion selectivity of the CFTR ion channel were tested in control experiments showing good agreement with published data (Tabcharani, J. A et al. (1997) J. Gen. Physiol. 110:341-54).

BHK cells [3] = test: Western blot of BHK cell extracts with M3A7 antibody, with endoglycosidase H digestion; format: cell-based, Baby hamster; conditions: ΔF508 CFTR background; for mature bands of lower mobility on Western blot: steady state, BHK cell extracts
Procedure: Baby hamster kidney cells (BHK) cells grown at 37° C. in 5% CO2 were employed as hosts for CFTR expression as described previously (Loo et al. (1998) EMBO J. 17:6879-6887; and Seibert, F. S et al. (1995) J. Biol. Chem. 270:2158-2162). Subconfluent BHK cells were transformed with the above wild-type or ΔF508 CFTR constructs using calcium phosphate precipitation (Chen, C., and Okayama, H. (1987) Mol. Cell. Biol. 7: 2745-2752). After growth in selective media containing 500 μM methotrexate, individual colonies were picked and amplified in the same selective media.
BHK cells were grown, collected and then lysed with 1% SDS; the DNA was sheared by cycling through a 22 gauge needle. Protein lysate (20 μg) from the sample were then subjected to SDS-PAGE on 7% polyacrylamide gels. Protein was electroblotted from the gel to nitrocellulose membrane and the membrane was probed with a mouse anti-CFTR monoclonal antibody, M3A7 (Kartner, N. et al. (1992) Nat. Genetics 1:321-7). Chemiluminescent detection was performed according to the manufacturer's recommendations (Pierce).
For endoglycosidase H treatment, cell lysates were diluted with 10 volumes of buffer (50 mM sodium acetate, pH 5.3, 0.5% Nonidet P-40, 1% β-mercaptoethanol plus a protease inhibitor mixture: 2 μg/ml aprotinin, 120 μg/ml benzamidine, […], 1 μg/ml leupepetin and 50 μg/ml pefabloc). This yielded a final SDS concentration of 0.1%. Samples were then incubated for 4 hr at 37° C. with 10 mU of endoglycosidase H (Boehringer Mannheim). The reactions were stopped by addition of 4 volumes of cold ethanol (−20° C.) to precipitate the proteins. Precipitated proteins were then resuspended in gel loading dye and subjected to SDS-PAGE and immunoblotting as above.

BHK cells [4] = test: cAMP stimulated 36Cl- efflux from CFTR expressing cells; format: cell-based, Baby hamster; conditions: stimulation with IBMX, Forskolin, dibutyryl cyclic AMP
Procedure: Wild-type and ΔF508 CFTR expressing cells with each of the individual R[…]K substitutions, or all four lysine substitutions were grown to confluence in six well culture dishes. The cells were washed with a modified Ringer's buffer solution (136 mM NaNO3, 3 mM KNO3, 2 mM Ca(NO3)2, 2 mM Mg(NO3)2, 10 mM glucose and 20 mM HEPES, pH 7.4) and loaded for 60 min at room temperature with the same buffer supplemented with 1 μCi Na^36Cl (Amersham) in a volume of 0.5 ml per well. Wells were then washed three times at one min intervals. Samples (0.5 ml) were then collected at 1 minute intervals for scintillation counting with stimulation occurring at time 0 by adding buffer containing 1 mM IBMX, 10 μM Forskolin and 100 μM dibutyryl cyclic AMP. The 0.5 ml samples were collected into 24 well Top Count plates (Packard) and 1 ml of Microcint 40 scintillation cocktail (Packard) was added. ^36Cl^− radioactivity was determined in a Packard Top Count scintillation counter.

BHK cells [5] = test: Indirect immunofluorescence localization of CFTR with M3A7; format: cell-based, Baby hamster; conditions: M3A7 staining, permeabilized cells
Procedure: Immunofluorescence microscopy in cells expressing ΔF508 CFTR was performed using the highly specific monoclonal antibody, M3A7 (Kartner et al., 1992, supra). Briefly, transformed cells were grown on coverslips, fixed in 70% cold methanol at −20° C. for 10 minutes, blocked using 1% BSA and 5% normal rabbit serum in PBS and were permeabilized by incubating in PBS+0.1% saponin for 1 h at 4° C. CFTR was detected by incubation with 10 μg/ml of M3A7 primary antibody for 60 min at room temperature. Rhodamine linked rabbit anti-mouse secondary antibody (DAKO) was diluted 1:50 in the same blocking solution for a further 1 h incubation. Photomicrographs were made using a Diagnostic Instruments Spot Cam digital camera on a Nikon Microphot-FXA microscope.

CFTR chloride channels [6] = target: T1, CFTR chloride channels (Homo sapiens, UniProt P13569, DEL508-508/V470M); test: Single CFTR Cl- channel recording in planar lipid bilayers; format: biochemical; conditions: vesicles from BHK cells
T1 construct: These five fragments were ligated together to generate full length CFTR cDNA in pNUT; expressed in transfected cells; host or cells: BHK (baby hamster kidney) cells, stably transfected with pNUT-CFTR constructs; membrane vesicles fused with planar lipid bilayers
Procedure: as §1

BHK cells [7] = test: Cell surface biotinylation of CFTR on intact cell monolayers; format: cell-based, Baby hamster
Procedure: For cell surface biotinylation studies, cells grown to about 90% confluency were treated with 2 mM sodium butyrate for 18 h to augment CFTR expression. Dishes of cells were then placed on ice in a cold room for 30 minutes and all subsequent steps were performed. Cells washed with PBS containing 0.1 mM CaCl2 and 1.0 mM MgCl2, were labeled using 3 ml of 1 mg/ml EZ-Link Sulfo-NHS-SS-biotin (Pierce) in PBS, pH 8.0 for 30 minutes. Following washes in PBS+1% BSA and PBS, cells were incubated for 30 minutes in NP40 lysis buffer (0.09% NP40, 150 mM NaCl, 10 mM NH4MoO4, 50 mM Tris-HCl, pH 7.4), scraped and transferred to microfuge tubes. Insoluble materials were removed by centrifugation. Biotinylated proteins were then precipitated by incubation overnight with 50 μl of packed immobilized streptavidin beads (Pierce). Beads were washed with RIPA buffer (0.1% SDS, 1% DOC, 1% Triton X-100, 150 mM NaCl, 50 mM Tris-Hcl, pH 7.4) and proteins eluted with gel sample buffer for electrophoresis and Western blotting with M3A7 as detailed above.

T1 sequence (P13569 with tags, fused parts or gaps V470M/DEL508-508): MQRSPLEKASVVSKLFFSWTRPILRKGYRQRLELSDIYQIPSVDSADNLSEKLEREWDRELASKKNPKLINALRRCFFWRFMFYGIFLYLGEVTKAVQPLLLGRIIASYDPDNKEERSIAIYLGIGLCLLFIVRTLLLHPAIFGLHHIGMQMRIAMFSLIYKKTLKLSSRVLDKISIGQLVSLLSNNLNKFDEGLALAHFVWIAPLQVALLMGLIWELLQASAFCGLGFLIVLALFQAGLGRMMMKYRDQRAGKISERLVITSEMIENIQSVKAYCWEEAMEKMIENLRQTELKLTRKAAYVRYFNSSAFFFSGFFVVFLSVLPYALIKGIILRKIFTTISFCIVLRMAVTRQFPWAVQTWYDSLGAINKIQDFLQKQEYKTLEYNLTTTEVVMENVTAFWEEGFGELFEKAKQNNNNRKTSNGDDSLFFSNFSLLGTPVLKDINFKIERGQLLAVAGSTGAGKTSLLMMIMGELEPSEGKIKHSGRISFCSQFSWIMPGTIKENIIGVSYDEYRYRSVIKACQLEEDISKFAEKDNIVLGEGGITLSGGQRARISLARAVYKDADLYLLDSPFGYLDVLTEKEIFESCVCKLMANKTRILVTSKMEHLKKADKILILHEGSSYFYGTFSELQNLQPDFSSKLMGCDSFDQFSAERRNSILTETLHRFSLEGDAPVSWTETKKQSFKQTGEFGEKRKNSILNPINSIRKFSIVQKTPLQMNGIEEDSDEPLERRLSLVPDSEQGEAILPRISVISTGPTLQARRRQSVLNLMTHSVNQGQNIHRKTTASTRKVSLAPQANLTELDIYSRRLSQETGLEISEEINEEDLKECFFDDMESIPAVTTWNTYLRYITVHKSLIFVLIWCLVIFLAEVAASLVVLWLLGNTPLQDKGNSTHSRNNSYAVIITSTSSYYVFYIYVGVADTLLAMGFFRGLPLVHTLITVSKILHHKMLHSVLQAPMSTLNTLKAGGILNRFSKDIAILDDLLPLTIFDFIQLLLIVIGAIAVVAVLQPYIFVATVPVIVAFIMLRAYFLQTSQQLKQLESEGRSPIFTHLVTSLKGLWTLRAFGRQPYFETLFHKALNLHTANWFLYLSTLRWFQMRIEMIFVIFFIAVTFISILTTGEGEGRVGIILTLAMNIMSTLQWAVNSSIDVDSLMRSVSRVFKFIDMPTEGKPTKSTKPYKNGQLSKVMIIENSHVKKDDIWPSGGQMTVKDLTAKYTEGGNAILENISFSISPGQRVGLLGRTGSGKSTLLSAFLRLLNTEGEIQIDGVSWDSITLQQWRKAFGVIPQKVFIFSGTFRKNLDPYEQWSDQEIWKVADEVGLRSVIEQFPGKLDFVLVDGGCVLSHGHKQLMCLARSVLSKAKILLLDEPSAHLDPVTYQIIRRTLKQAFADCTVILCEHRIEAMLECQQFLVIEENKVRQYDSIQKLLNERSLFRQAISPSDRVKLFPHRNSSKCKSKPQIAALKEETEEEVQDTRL

Substance	conversion of precursor to mature endoH resistant form during chase (BHK cells [1])	Conductance (CFTR chloride channels [2]) [pS]	Long mean closed time τc2 (CFTR chloride channels [2]) [ms]	Mean open time τ0 (CFTR chloride channels [2]) [ms]	Short mean closed time τc1 (CFTR chloride channels [2]) [ms]	cAMP stimulated 36Cl- efflux rate (BHK cells [4])	CFTR localization by immunofluorescence (BHK cells [5])	also measured
wild-type/4RK: wild-type CFTR in which four arginines (R29K, R516K, R555K, R766K) have been substituted with lysine	more rapid maturation	10.8	2000	1400	10	–	–	maturation at the end of the pulse (BHK cells [1]): already evident; open probability (CFTR chloride channels [2]): ~0.61
ΔF508/R29K: ΔF508 CFTR in which arginine 29 has been substituted with lysine	–	–	–	–	–	low rates of ^36Cl^− efflux occurred at delayed times after stimulation	–	endoglycosidase H sensitivity of the large bands (BHK cells [3]): Endoglycosidase-H insensitivity; mature bands of lower mobility on Western blot (BHK cells [3]): bands of lower mobility are produced
wild-type CFTR: full-length human CFTR expressed from pNUT vector in BHK cells [reference compound]	begins within an hour	10.7	680	230	10	–	strong uniform staining of mature CFTR over the entire cell surface	radioactivity of pulse-labeled immature band present in mature band (conversion of precursor to product) (BHK cells [1]): ~30%; maturation at the end of the pulse (BHK cells [1]): no maturation; open probability (CFTR chloride channels [2]): ~0.25
R766K: ΔF508 CFTR in which arginine 766 has been substituted with lysine	–	–	–	–	–	No detectable increase in efflux rate	–	–
ΔF508 CFTR: export-incompetent cystic fibrosis causing CFTR mutant lacking phenylalanine 508	no conversion; also recorded: fails to mature even after two hours	–	–	–	–	No detectable increase in efflux rate	Perinuclear staining only	detection of CFTR-like single channels (CFTR chloride channels [6]): never been able to detect CFTR-like single channels
R555K: ΔF508 CFTR in which arginine 555 has been substituted with lysine	–	–	–	–	–	No detectable increase in efflux rate	–	–
ΔF508/4RK: ΔF508 CFTR having all four arginines (29, 516, 555, 766) substituted with lysine	readily apparent	10.7	2800	700	10	more than half as rapid as those from cells expressing wild-type CFTR	extension of the staining more peripherally	endoglycosidase H sensitivity of the large bands (BHK cells [3]): Endoglycosidase-H insensitivity; mature bands of lower mobility on Western blot (BHK cells [3]): bands of lower mobility are produced; accessibility of mature band to surface biotinylation (BHK cells [7]): accessible to the impermeant amino reactive biotinylation reagent; radioactivity of pulse-labeled immature band present in mature band (conversion of precursor to product) (BHK cells [1]): approximately 10%
R516K: ΔF508 CFTR in which arginine 516 has been substituted with lysine	–	–	–	–	–	No detectable increase in efflux rate	–	–
